Assay [1] concerns the target T1, Tyrosine-protein phosphatase non-receptor type 22 (Homo sapiens, UniProt Q9Y2R2).
T1 sequence (Q9Y2R2 whole entry): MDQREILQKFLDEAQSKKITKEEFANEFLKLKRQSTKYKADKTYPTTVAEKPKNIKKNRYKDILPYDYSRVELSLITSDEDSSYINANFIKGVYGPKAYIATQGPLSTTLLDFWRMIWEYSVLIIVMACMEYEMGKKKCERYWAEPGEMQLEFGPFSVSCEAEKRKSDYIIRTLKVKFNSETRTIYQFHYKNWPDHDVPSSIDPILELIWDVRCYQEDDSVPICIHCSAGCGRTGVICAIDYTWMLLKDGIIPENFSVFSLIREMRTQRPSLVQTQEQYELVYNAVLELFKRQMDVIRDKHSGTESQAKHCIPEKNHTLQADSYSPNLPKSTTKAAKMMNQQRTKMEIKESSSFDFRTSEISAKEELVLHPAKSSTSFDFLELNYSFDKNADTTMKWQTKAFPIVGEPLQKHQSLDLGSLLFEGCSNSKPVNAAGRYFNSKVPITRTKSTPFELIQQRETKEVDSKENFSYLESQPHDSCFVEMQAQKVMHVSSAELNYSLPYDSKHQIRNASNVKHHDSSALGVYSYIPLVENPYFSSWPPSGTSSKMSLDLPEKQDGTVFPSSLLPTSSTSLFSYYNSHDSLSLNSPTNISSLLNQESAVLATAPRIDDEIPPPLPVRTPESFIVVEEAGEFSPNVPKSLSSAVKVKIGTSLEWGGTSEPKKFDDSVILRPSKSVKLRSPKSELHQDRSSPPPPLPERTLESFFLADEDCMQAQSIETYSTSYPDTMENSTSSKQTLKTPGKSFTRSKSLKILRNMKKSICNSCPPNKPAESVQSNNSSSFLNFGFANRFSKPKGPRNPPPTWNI
Briefly: SAR LYP1 Fluorescent Assay using OMFP substrate for In Vitro dose response studies - Set 3. [Related pubchem assays (depositor defined):AID1779, AID1784, AID2140, AID2686]. It is filed as functional.

Assay [2] has as its target T2, Tyrosine-protein phosphatase non-receptor type 7 (Homo sapiens, UniProt P35236).
T2 sequence (P35236 whole entry): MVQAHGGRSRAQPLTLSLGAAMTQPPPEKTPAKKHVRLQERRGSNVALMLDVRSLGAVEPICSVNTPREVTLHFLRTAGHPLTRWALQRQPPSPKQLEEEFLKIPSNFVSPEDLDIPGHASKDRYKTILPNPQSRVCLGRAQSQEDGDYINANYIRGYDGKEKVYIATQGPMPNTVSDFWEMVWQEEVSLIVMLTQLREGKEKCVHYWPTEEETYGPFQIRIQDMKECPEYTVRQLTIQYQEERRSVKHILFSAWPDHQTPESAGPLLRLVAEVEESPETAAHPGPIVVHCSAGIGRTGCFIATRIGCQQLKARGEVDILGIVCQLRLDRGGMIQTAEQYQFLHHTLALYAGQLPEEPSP
As to the kind of experiment: redox-active compounds inhibiting HePTP phosphatase – biochemical, fluorescence, mechanism study (AID 2068). It is filed as functional.

Assay [3] deals with T2, Tyrosine-protein phosphatase non-receptor type 7. Briefly: inhibition of hematopoietic tyrosine phosphatase HePTP – biochemical, set 2, SAR follow-up (AID 449736). It counts as functional.
In assay [4] the target is T3, SUMO-activating enzyme (Homo sapiens, UniProt Q9UBT2). As to the kind of experiment: blockers of UBC9-mediated SUMO conjugation – biochemical, AlphaScreen, SUMOylation inhibitor project, confirmation (AID 2018). It is filed as functional.
The target in assay [5] is T1, Tyrosine-protein phosphatase non-receptor type 22. As to the kind of experiment: inhibition of lymphoid tyrosine phosphatase LYP – biochemical, pCAP fluorogenic substrate, fluorescence, set 3, SAR follow-up (AID 449727). It counts as functional.
In assay [6] the target is Arf-GAP with SH3 domain, ANK repeat and PH domain-containing protein 1 (Homo sapiens, UniProt Q9ULH1). It counts as functional.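 Note: biochemical fluorescence polarization dose–response screen measuring inhibition of ASAP1; ASAP1 GAP domain stimulating GTP hydrolysis by truncated human ARF1.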
Assay [7] addresses T3, SUMO-activating enzyme. Briefly: blockers of SAE1/SAE2–UBC9 SUMO transfer – biochemical, HTRF, uHTS, primary screen (AID 2006). It counts as protein-complex assay.
Assay [8] addresses T4, Tyrosine-protein phosphatase non-receptor type 12 (Homo sapiens, UniProt Q05209).
T4 sequence (Q05209 whole entry): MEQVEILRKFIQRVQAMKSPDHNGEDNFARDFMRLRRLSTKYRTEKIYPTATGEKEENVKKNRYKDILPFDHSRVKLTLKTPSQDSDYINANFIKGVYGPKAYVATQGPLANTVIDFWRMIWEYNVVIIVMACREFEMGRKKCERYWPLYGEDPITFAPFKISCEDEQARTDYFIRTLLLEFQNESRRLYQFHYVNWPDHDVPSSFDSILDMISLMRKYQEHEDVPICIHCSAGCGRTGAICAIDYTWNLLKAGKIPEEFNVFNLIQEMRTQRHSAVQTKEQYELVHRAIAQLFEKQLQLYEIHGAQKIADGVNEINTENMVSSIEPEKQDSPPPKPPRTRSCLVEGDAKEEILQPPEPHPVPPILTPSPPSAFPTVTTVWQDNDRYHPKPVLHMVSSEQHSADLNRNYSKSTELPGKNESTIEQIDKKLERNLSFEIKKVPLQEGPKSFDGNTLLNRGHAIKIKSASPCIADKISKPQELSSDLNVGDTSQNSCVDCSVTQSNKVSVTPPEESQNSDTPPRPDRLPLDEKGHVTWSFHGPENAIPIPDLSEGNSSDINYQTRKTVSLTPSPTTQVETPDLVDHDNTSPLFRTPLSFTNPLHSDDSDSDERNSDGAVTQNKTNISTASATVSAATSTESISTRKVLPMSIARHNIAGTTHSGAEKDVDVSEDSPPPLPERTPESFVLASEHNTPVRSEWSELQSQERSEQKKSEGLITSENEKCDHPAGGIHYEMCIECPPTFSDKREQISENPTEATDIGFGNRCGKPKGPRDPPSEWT
Briefly: SAR Selectivity Analysis of small molecule inhibitors of PEST using pCAP in a fluorescence assay. [Related pubchem assays (depositor defined):AID1779, AID1784, AID2135]. It is filed as functional.

Assay [9] has as its target Dual specificity protein phosphatase 6 (Rattus norvegicus, UniProt Q64346). It is filed as functional.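 Note: confirmatory in vitro dose-response testing of MKP-3 inhibition; recombinant His-tagged MKP-3 made in E. coli BL21 with OMFP substrate.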
Assay [10] concerns the target T5, Carboxy-terminal domain RNA polymerase II polypeptide A small phosphatase 1 (Homo sapiens, UniProt Q9GZU7).
T5 sequence (Q9GZU7 whole entry): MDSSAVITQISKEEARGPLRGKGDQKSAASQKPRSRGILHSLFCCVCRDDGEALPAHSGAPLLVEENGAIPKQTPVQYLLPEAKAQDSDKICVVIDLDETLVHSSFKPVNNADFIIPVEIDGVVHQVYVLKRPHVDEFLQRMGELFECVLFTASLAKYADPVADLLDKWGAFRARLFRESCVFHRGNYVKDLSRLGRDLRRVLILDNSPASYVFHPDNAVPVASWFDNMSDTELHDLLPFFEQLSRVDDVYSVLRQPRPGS
Briefly: CTDSP1 inhibitors, concentration-response, biochemical, absorbance readout, ultra-high-throughput screen actives (AID 540297). It is filed as functional.

Assay [11] has as its target Dual specificity protein phosphatase 3 (Homo sapiens, UniProt P51452). Briefly: SAR VHR1 Fluorescent Assay for In Vitro dose response studies Set 2. [Related pubchem assays (depositor defined):AID1654, AID1661, AID1878]. It counts as functional.
For assay [12], the target named is T6, Apoptotic protease-activating factor 1 (Homo sapiens, UniProt O14727).
T6 sequence (O14727 whole entry): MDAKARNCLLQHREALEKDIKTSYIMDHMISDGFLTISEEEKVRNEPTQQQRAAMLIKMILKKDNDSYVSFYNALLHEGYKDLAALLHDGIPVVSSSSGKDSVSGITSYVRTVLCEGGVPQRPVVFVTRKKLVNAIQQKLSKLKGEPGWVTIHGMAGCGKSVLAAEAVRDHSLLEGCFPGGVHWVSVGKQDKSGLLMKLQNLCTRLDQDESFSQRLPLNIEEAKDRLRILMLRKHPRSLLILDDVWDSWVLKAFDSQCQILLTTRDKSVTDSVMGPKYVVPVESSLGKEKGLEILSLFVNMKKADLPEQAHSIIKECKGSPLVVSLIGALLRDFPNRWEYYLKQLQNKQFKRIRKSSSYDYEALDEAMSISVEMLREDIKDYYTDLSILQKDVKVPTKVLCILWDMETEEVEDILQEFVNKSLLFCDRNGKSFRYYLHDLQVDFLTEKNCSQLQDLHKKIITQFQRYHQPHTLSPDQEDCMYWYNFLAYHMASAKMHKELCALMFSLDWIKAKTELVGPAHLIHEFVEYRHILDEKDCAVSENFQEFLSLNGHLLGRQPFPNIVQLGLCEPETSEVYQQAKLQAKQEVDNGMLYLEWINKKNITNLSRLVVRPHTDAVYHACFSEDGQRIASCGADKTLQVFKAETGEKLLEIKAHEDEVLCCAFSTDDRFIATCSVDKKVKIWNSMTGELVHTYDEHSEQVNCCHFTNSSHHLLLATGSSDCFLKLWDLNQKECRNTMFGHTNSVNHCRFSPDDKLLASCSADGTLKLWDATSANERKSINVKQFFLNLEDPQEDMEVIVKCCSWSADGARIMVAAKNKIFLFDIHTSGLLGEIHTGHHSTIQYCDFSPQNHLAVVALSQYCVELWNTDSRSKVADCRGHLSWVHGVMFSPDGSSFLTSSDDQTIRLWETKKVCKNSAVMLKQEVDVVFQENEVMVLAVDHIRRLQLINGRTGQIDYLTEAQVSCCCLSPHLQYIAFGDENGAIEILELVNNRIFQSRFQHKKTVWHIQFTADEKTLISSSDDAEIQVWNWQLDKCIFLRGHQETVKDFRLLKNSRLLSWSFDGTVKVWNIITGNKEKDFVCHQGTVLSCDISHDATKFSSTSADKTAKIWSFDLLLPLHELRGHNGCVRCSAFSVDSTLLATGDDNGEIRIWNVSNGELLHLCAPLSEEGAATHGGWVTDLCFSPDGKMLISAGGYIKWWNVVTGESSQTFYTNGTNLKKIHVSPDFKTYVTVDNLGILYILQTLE
Briefly: activation of Apaf-1 mediated apoptosis – fluorescent, uHTS hits, dose response (AID 588554). It counts as functional.

In assay [13] the target is Beta-adrenergic receptor kinase 1 (Homo sapiens, UniProt P25098). As to the kind of experiment: blockers of aptamer binding to GRK2 – biochemical, flow cytometry beads, FAM-aptamer, powder set 1, dose response (AID 588720).
Assay [14] addresses T7, Small ubiquitin-related modifier 1 (Homo sapiens, UniProt P63165). As to the kind of experiment: SUMO1 protein-protein binding blockers, potency – biochemical, FRET, dose response (AID 624383). The conditions noted are these: read-out: IC50_Mean. It is filed as functional.
For assay [15], the target named is T7, Small ubiquitin-related modifier 1. As to the kind of experiment: SUMO1 protein interaction blockers, potency – biochemical, fluorescence polarization, uHTS hits, dose response (AID 624382). It is filed as functional. The settings on record: read-out: IC50_Mean.
The next assay has as its system Jurkat. Briefly: SAR Analysis of small molecule inhibitors of […] specific antigen receptor-induced NF-kB activation in a Jurkat cell line using a luminescence assay - Set 3. [Related pubchem assays (depositor defined):AID435022, AID435025, AID465]. It is filed as functional, cell-based. The conditions noted are these: Homo sapiens.
Assay [16] has as its system HEK293. As to the kind of experiment: HEK293T cell viability loss, resazurin readout – resazurin fluorescence, cytotoxicity control for NF-kB activator project, SAR follow-up (AID 493251). The conditions noted are these: Homo sapiens. It is filed as functional, cell-based.
Assay [17] concerns HEK293. As to the kind of experiment: SAR Analysis of small molecule inhibitors of B-cell specific antigen receptor-induced NF-kB activation in a HEK-293T cell line using a luminescence assay - Set 2. [Related pubchem assays (depositor defined):AID435022, AID435025, AID489021]. It counts as functional, cell-based. The conditions noted are these: Homo sapiens.

Each structure is given as a SMILES string. Active and inactive are the calls of the source.

T7 sequence (P63165 whole entry): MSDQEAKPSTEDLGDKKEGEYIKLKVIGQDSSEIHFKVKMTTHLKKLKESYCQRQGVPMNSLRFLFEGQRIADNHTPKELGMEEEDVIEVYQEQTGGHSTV
T3 sequence (Q9UBE0 whole entry): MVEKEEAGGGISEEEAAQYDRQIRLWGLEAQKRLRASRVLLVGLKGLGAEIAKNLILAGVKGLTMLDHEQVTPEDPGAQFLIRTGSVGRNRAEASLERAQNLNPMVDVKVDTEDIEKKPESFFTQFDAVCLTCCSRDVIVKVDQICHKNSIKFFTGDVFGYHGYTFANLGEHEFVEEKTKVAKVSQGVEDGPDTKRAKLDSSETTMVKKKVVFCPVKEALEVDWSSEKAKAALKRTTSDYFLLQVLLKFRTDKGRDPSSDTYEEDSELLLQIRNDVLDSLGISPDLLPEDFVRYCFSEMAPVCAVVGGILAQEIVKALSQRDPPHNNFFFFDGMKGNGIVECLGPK
T3 sequence (Q9UBT2 whole entry): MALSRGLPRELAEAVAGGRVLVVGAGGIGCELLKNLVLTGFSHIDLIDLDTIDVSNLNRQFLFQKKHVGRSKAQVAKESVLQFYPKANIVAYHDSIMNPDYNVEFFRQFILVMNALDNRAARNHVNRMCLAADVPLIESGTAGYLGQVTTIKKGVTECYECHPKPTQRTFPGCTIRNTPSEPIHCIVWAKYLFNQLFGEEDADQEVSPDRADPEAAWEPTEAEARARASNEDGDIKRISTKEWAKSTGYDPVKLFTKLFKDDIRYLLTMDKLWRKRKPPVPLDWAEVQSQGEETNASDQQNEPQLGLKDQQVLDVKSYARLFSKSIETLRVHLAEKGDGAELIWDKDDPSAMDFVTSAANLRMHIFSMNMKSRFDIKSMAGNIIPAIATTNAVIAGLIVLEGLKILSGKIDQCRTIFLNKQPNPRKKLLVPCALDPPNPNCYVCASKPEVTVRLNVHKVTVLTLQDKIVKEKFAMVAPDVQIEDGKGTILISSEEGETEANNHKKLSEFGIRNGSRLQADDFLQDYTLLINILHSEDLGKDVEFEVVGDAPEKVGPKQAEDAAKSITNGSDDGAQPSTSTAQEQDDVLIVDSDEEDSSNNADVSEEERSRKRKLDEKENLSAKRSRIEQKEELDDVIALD
Chain of Dual specificity protein phosphatase 3 (P51452 whole entry): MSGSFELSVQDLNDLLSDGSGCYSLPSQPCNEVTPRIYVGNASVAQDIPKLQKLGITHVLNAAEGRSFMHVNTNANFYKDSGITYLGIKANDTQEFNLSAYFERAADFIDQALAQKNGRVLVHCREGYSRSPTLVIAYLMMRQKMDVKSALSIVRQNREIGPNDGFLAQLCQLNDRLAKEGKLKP
Chain of Arf-GAP with SH3 domain, ANK repeat and PH domain-containing protein 1 (Q9ULH1 whole entry, the tested form may be a part): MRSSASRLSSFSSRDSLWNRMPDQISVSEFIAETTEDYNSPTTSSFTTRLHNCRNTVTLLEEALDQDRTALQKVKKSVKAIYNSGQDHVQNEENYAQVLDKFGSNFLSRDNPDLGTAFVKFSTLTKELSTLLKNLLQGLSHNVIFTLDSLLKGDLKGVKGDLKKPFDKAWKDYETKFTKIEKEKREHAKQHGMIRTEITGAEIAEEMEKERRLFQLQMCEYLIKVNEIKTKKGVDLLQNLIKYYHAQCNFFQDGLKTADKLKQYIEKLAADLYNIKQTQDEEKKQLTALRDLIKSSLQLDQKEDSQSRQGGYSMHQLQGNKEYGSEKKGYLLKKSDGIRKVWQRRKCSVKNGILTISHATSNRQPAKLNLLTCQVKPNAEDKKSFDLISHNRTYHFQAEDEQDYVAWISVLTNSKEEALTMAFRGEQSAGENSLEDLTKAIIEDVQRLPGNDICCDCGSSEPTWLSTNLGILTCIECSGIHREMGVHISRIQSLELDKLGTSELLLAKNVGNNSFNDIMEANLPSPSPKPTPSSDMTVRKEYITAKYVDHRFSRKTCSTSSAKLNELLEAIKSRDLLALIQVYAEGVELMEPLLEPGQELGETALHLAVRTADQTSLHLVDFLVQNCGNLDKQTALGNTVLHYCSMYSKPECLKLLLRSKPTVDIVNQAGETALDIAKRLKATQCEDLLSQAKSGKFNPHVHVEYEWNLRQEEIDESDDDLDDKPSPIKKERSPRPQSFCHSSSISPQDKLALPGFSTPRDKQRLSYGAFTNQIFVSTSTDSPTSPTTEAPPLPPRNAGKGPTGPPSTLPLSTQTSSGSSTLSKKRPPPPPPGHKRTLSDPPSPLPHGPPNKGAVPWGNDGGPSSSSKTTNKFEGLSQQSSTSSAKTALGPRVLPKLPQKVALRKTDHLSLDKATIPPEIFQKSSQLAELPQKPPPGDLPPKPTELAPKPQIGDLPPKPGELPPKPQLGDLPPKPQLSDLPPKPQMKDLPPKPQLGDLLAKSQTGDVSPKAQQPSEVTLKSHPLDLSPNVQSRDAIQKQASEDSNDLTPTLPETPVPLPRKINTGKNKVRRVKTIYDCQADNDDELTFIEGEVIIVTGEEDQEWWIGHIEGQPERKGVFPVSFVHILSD
Chain of Dual specificity protein phosphatase 6 (Q64346 whole entry, the tested form may be a part): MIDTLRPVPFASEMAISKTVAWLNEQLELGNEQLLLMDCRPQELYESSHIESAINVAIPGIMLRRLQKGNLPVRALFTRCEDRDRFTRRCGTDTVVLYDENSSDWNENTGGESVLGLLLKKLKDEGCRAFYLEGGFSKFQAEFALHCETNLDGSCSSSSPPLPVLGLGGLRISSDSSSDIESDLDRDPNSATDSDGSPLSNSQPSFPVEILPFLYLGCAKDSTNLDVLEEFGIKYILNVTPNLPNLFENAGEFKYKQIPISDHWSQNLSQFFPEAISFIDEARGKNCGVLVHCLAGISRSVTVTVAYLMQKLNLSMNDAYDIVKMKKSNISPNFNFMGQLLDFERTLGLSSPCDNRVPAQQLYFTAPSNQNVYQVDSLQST
Chain of Beta-adrenergic receptor kinase 1 (P25098 whole entry): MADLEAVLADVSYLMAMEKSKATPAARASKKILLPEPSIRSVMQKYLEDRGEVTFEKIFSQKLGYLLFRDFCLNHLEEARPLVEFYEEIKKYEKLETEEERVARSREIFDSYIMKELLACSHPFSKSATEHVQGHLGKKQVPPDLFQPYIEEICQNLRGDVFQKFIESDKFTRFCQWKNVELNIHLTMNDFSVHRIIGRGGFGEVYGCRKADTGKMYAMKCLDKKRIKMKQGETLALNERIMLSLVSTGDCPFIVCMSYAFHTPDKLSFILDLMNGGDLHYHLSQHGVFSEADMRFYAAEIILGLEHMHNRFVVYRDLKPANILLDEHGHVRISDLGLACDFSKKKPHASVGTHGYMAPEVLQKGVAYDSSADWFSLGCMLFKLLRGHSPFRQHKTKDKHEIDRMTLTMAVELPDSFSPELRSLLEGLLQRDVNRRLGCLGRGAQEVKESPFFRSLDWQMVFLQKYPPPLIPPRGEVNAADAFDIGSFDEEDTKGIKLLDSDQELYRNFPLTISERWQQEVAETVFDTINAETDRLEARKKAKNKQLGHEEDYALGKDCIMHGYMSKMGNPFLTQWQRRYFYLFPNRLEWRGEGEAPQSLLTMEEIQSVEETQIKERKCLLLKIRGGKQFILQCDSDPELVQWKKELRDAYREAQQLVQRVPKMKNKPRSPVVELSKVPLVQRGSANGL

Consider `Cc1ccc(NC(=O)CN2C(=O)S/C(=C\c3cc(Cl)c(OCC(=O)O)c(Cl)c3)C2=O)cc1`, for which the IC50 in assay [1] was 3.95 µM (active); in [2], 0.819 µM (active); in [3] it was 0.596 µM (active); on SUMO-activating enzyme [4] it was 8.11 µM (active); in assay [5] it was 4.09 µM (active); in [6], 6.61 µM (active). For the same compound, the IC50 is 13.5 µM (active) at SUMO-activating enzyme [7]; 2.79 µM (active) in assay [8]; 17.8 µM (active) in assay [9]; 2.5 µM (active) in [10]; 3.55 µM (active) in assay [11].
Consider `CCOc1ccccc1NC(=O)CCS(=O)(=O)c1ccc(Br)cc1`, for which the figures for the EC50 in assay [12] and in assay [13] were 11.6 µM (active) and 0.337 µM (active), respectively. Moreover, the IC50 in assay [14] is 6.76 µM (active); in assay [15], > 66.6 µM (inactive); in assay [10], 4.09 µM (active).
Regarding `CCOc1ccc(-c2noc(CCC(=O)NC)n2)cc1`, the IC50 in the assay with Jurkat, with HEK293 [16] and with HEK293 [17] was > 80 µM (inactive) in each case.

For the origin of these results see ChEMBL document CHEMBL1201862, “PubChem BioAssay data set” (2004).
